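1) Cells in 96-well plates. 2) Compound, 48 h, 5 concentrations. 3) Linear interpolation between surrounding doses. 4) Unreached endpoint = highest concentration. Abbreviation: GI50, concentration required for 50% inhibition of growth. TGI: total growth inhibition.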
What was measured:
Test in all cases: NCI tumour cell line growth inhibition, 48 h
RPMI-8226 leukemia = system: RPMI-8226 leukemia
BT-549 breast = system: BT-549 breast
MDA-MB-231 breast = system: MDA-MB-231 breast
HL-60(TB) leukemia = system: HL-60(TB) leukemia
KM12 colon = system: KM12 colon
MDA-N = system: MDA-N
IGROV1 ovarian = system: IGROV1 ovarian
TK-10 renal = system: TK-10 renal
HS 578T breast = system: HS 578T breast
NCI-H226 lung = system: NCI-H226 lung

Compound	TGI (RPMI-8226 leukemia)	TGI (BT-549 breast)	TGI (MDA-MB-231 breast)	TGI (HL-60(TB) leukemia)	TGI (KM12 colon)	TGI (MDA-N)	TGI (IGROV1 ovarian)	TGI (TK-10 renal)	TGI (HS 578T breast)	TGI (NCI-H226 lung)	GI50 (TK-10 renal)	GI50 (RPMI-8226 leukemia)	GI50 (HS 578T breast)	GI50 (HL-60(TB) leukemia)	GI50 (KM12 colon)	GI50 (BT-549 breast)	GI50 (NCI-H226 lung)	GI50 (MDA-MB-231 breast)	GI50 (IGROV1 ovarian)
COc1ccc(-c2nc(-c3cnccn3)n(C/C=C/c3ccccc3)n2)cc1	> 100 µM	> 100 µM	> 100 µM	> 100 µM	> 100 µM	> 100 µM	> 100 µM	–	–	–	–	–	–	–	–	–	–	–	–
C/C(N=NS(=O)(=O)c1c(C)cc(C)cc1C)=C1\C=CC=CN1O	> 100 µM	–	–	> 100 µM	> 100 µM	–	> 100 µM	> 100 µM	–	–	–	–	–	–	–	–	–	–	–
CC1(C)CC(=O)C2=C(C1)NC(=S)C(C#N)C2c1ccccc1 (stereo not given)	–	> 100 µM	> 100 µM	> 100 µM	–	> 100 µM	> 100 µM	> 100 µM	> 100 µM	> 100 µM	–	–	–	–	–	–	–	–	–
CCOC(=O)c1c(SC(=O)c2ccc(Cl)cc2)n(-c2ccccc2)c(=S)n(-c2ccccc2)c1=O	–	–	> 100 µM	> 100 µM	> 100 µM	> 100 µM	> 100 µM	> 100 µM	> 100 µM	> 100 µM	–	–	–	–	–	–	–	–	–
C[C@@H]([C@H]1CC[C@@]2(C)[C@@H]3CC[C@@H]4C(=CC3=CC[C@]12C)CC[C@H](N(C)C)C4(C)C)N(C)C	> 100 µM	–	> 100 µM	> 100 µM	> 100 µM	> 100 µM	> 100 µM	> 100 µM	> 100 µM	> 100 µM	–	–	–	–	–	–	–	–	–
O=c1[nH]c(=S)[nH]c2c1CCCN2	> 100 µM	–	–	> 100 µM	> 100 µM	–	> 100 µM	> 100 µM	–	–	–	–	–	–	–	–	–	–	–
COc1cccc(C2C(C#N)=C(N)Oc3cc(OCCCCCC[P+](c4ccccc4)(c4ccccc4)c4ccccc4)ccc32)c1 (stereo not given)	0.659 µM	–	–	0.738 µM	1.58 µM	–	–	2.99 µM	2.78 µM	–	1.46 µM	0.194 µM	0.608 µM	0.263 µM	0.433 µM	–	–	–	–
CCC1OC2(C)CC(C#N)(C#N)C1(C#N)C(=N)O2 (stereo not given)	–	> 100 µM	> 100 µM	> 100 µM	> 100 µM	> 100 µM	> 100 µM	> 100 µM	> 100 µM	–	–	–	–	–	–	–	–	–	–
O=Cn1c2ccccc2c2ccccc21	> 100 µM	–	–	> 100 µM	> 100 µM	–	> 100 µM	> 100 µM	–	–	–	–	–	–	–	–	–	–	–
C/C(=N/NC(N)=S)C(CN1CCOCC1)C(C1=C(O)c2ccccc2OC1)c1ccccc1 (stereo not given)	> 100 µM	–	–	50 µM	> 100 µM	–	> 100 µM	> 100 µM	–	> 100 µM	–	–	–	–	–	–	–	–	–
O=S1(=O)N=C(SCc2c[nH]c3ccccc23)N(c2ccccc2)c2ccncc21	–	> 100 µM	> 100 µM	> 100 µM	> 100 µM	> 100 µM	–	> 100 µM	> 100 µM	> 100 µM	–	–	–	–	–	–	–	–	–
COC(=O)CCCc1nc2ccccc2nc1N=Nc1ccccc1	98.8 µM	> 100 µM	> 100 µM	20.1 µM	> 100 µM	> 100 µM	> 100 µM	> 100 µM	–	> 100 µM	–	–	–	–	–	–	–	–	–
Cc1cc2ccccc2n2c1nc1ccc(O)cc12	> 10 µM	> 10 µM	> 10 µM	> 10 µM	> 10 µM	–	> 10 µM	> 10 µM	> 10 µM	–	–	–	–	–	–	–	–	–	–
NCCCNCCSP(=O)(O)O	> 750 µM	–	–	> 721 µM	> 750 µM	–	> 750 µM	–	–	> 750 µM	–	–	–	–	–	–	–	–	–
COC1OC(C)/C(=N/O)C2OC(C)(C)OC12 (stereo not given)	> 100 µM	> 100 µM	> 100 µM	> 100 µM	> 100 µM	–	> 100 µM	> 100 µM	> 100 µM	> 100 µM	–	–	–	–	–	–	–	–	–
COc1c(NC(C)=O)c2ccccc2c2ccccc12	–	> 100 µM	> 100 µM	> 100 µM	> 100 µM	> 100 µM	> 100 µM	> 100 µM	> 100 µM	> 100 µM	–	–	–	–	–	–	–	–	–
Oc1c(NCn2nc(CCCCCCCCc3nn(CNc4ccc5ccccc5c4O)c(=S)o3)oc2=S)ccc2ccccc12	> 100 µM	> 100 µM	> 100 µM	–	> 100 µM	48.5 µM	> 100 µM	> 100 µM	–	> 100 µM	–	–	–	–	–	–	–	–	–
Cc1oc(N)c(S(=O)(=O)/C(C#N)=C/c2ccccc2[N+](=O)[O-])c1C	75.2 µM	48.2 µM	82.6 µM	–	73.2 µM	46.9 µM	> 100 µM	> 100 µM	–	> 100 µM	–	–	–	–	–	–	–	–	–
COC(=O)CCC(NC(=S)N/N=C(\C)c1cccs1)C(=O)OC (stereo not given)	–	–	–	–	> 100 µM	–	> 100 µM	> 100 µM	–	> 100 µM	–	–	–	–	–	–	–	–	–
O=C(CCC(NC(=O)OCc1ccccc1)C(=O)OCc1ccccc1)Nc1cccc(OCc2ccccc2)c1 (stereo not given)	–	–	56.5 µM	37.6 µM	> 100 µM	> 100 µM	71.1 µM	90.3 µM	39.4 µM	> 100 µM	–	–	–	–	–	–	–	–	–
C=CC(C)(C)/C(=C\CO[Si](C(C)C)(C(C)C)C(C)C)C(=O)N(C)c1ccccc1I	8.54 µM	–	28.9 µM	11.4 µM	> 100 µM	33.6 µM	30.3 µM	26.2 µM	27.1 µM	–	–	–	–	–	–	–	–	–	–
O=C(NCc1cn(Cc2cccc(Oc3ccccc3)c2)nn1)c1cccnc1NCc1ccc(Cl)cc1	> 100 µM	7.63 µM	6.14 µM	8.07 µM	> 100 µM	–	> 100 µM	49.1 µM	> 100 µM	> 100 µM	3.7 µM	3.12 µM	2.72 µM	3.39 µM	3.62 µM	2.72 µM	4.23 µM	2.29 µM	9.03 µM
Cc1noc(-c2ccc(C(=O)O)[nH]2)c1Br	> 100 µM	> 100 µM	> 100 µM	–	> 100 µM	> 100 µM	> 100 µM	> 100 µM	> 100 µM	–	–	–	–	–	–	–	–	–	–
C[C@]12CC[C@H]3[C@@H](CC=C4C[C@@H](O)CC[C@@]43C)[C@@H]1C/C(=C\c1ccc([N+](=O)[O-])cc1)[C@@H]2O	> 100 µM	38 µM	22.6 µM	80.9 µM	> 100 µM	–	> 100 µM	55.2 µM	> 100 µM	55.2 µM	–	–	–	–	–	–	–	–	–
